Source: patent US20240317722A1, “HETEROARYL-3-PIPERIDINEDIONE COMPOUND AND USE THEREOF” (Medshine Discovery Inc., priority 2021, published 2024)

Test system: MDA-MB-231
Assay: Anti-proliferative effect in MDA-MB-231 (CellTiter-Glo)
Assay type: cell-based, human
Conditions: MDA-MB-231, 3 days
Protocol: This assay studied the inhibitory effect of the compounds on cell proliferation by detecting the effect of the test compounds on the in vitro activity of tumor cells MV4-11 and MDA-MB-231.
The tumor cell lines were cultured in an incubator at 37° C., 5% CO2 or 0% CO2according to the above culture conditions. The cells were periodically passaged, and cells in logarithmic growth phase were taken for plating. • 2. Cell plating • (1). Cells were stained with trypan blue and viable cells were counted. • (2).
• (3). 90 μL of cell suspension was added to each well of the culture plate, and culture medium without cells was added to the blank control well. • (4). The plate was incubated overnight in an incubator at 37° C., 5% CO2 or 0% CO2, and 100% relative humidity. • 3. Preparation of a compound storage plate
Preparation of a 400× compound storage plate: The compounds were diluted with DMSO in a gradient from the highest concentration to the lowest concentration. The plates were prepared freshly at each time for use. • 4. Preparation of 10× compound working solution and treatment of cells with compounds • (1). Preparation of 10× compound working solution: compound or DMSO was added, and the well content was mixed to uniform by aspiration and expelling with pipette. 78 μL of cell culture medium was added to a 96-well plate with a V-shaped bottom. 2 μL of the compound from the 400× compound storage plate was added to the cell culture medium in the 96-well plate. 2 μL of DMSO was added to the vehicle control and the blank control. After adding compound or DMSO, the well content was mixed to uniform by aspiration and expelling with pipette. • (2). Dosing: 10 μL of 10× compound working solution was added to the cell culture plate. 10 μL of DMSO-cell culture mix solution was added to the vehicle control and blank control. • (3). The 96-well cell plate was placed back into the incubator and cultured for 3 days. • 5. CellTiter-Glo luminescence cell viability detection
The following steps were performed according to the instruction of Promega CellTiter-Glo luminescence cell viability detection kit (Promega-G7573). • (1). The CellTiter-Glo buffer was thawed and allowed to stand to reach room temperature; • (2). CellTiter-Glo substrate was allowed to stand to reach room temperature; • (3). 10 mL of CellTiter-Glo buffer was added to CellTiter-Glo substrate in a bottle to dissolve the substrate to formulate CellTiter-Glo working solution; • (4). The working solution was vortexed slowly for fully dissolution; • (5). The cell culture plates were taken out and allowed to stand for 30 minutes to equilibrate to room temperature; • (6). 50 μL (equal to half the volume of cell culture solution in each well) of Cell Titer-Glo working solution was added into each well. The cell plate was wrapped with aluminum foil to protect the cell plate from light; • (7). The culture plates were shaken on an orbital shaker for 2 minutes to induce cell lysis; • (8). The culture plates were left at room temperature for 10 minutes to stabilize the luminescence signal; • (9). The luminous signal was detected on the 2104 En Vision plate reader. • 6. Data analysis
The following formula was used to calculate the inhibition rate (IR) of the test compounds: IR (%)=(RLU of the vehicle control−RLU of the compound)/(RLU of the vehicle control−RLU of the blank control)*100%. The inhibition rates of the compounds at different concentrations were calculated in Excel, and then GraphPad Prism software was used to graph the inhibition curves and calculate the relevant parameters, including the minimum inhibition rate, maximum inhibition rate and IC50.

## COCCOc1cc(NC(=O)NCc2ccc3c(C4CCC(=O)NC4=O)coc3c2)cc(Cl)c1C (centres unmarked) [WX005]
Homo sapiens, 72 h
  IC50: 4.7 nM
  Max. IR (maximum inhibition rate): 80.7%
